Measured values taken from patent US6653306B1, “Epoxy-steroidal aldosterone antagonist and angiotensin II antagonist combination therapy” (G.D. Searle & Co., priority 1995, dated 2003).
Several values for one entry are separate records, joined by “and”; a condition that tells them apart may be missing. Equal values may be shown once. Read-outs that look alike come from different tables or passages of the source.

Columns and labels:
pressor response to AII = assay: Assay C: In vivo intragastric pressor assay response for AII antagonists; design: species or system rat; conditions: intragastric, or intraduodenal for examples listed; for Assay C Inhibition: dose cell empty (dose not given)
Method: Assay C: In Vivo Intragastric Pressor Assay Response for AII Antagonists
Male Sprague-Dawley rats weighing 225-300 grams were anesthetized with methohexital (30 mg/kg, i.p.) and catheters were implanted into the femoral artery and vein. The catheters were tunneled subcutaneously to exit dorsally, posterior to the head and between the scapulae. The catheters were filled with heparin (1000 units/ml of saline). The rats were returned to their cage and allowed regular rat chow and water ad libitum. After full recovery from surgery (3-4 days), rats were placed in Lucite holders and the arterial line was connected to a pressure transducer. Arterial pressure was recorded on a Gould polygraph (mmHg). Angiotensin II was administered as a 30 ng/kg bolus via the venous catheter delivered in a 50 μl volume with a 0.2 ml saline flush. The pressor response in mm Hg was measured by the differer.-:e from pre-injection arterial pressure to the maximum pressure achieved. The AII injection was repeated every 10 minutes until three consecutive injections yielded responses within 4 mmHg of each other. These three responses were then averaged and represented the control response to AII. The test compound was suspended in 0.5% methylcellulose in water and was administered by gavage. The volume administered was 2 ml/kg body weight. The standard dose was 3 mg/kg. Angiotensin II bolus injections were given at 30, 45, 60, 75, 120, 150, and 180 minutes after gavage. The pressor response to AII was measured at each time point. The rats were then returned to their cage for future testing. A minimum of 3 days was allowed between tests. Percent inhibition was calculated for each time point following gavage by the following formula:
[(Control Response—Response at time point)/Control Response]×100.

rabbit aortic rings = assay: Assay B: In vitro vascular smooth muscle response for AII (antagonist activity, pA2); assay type: cell-based; conditions: two values per cell separated by / are separate determinations; for Kb: Oryctolagus cuniculus
Method: Assay B: In Vitro Vascular Smooth Muscle-response for AII
The compounds of the invention were tested for antagonist activity in rabbit aortic rings. Male New Zealand white rabbits (2-2.5 kg) were sacrificed using an overdose of pentobarbital and exsanguinated via the carotid arteries. The thoracic aorta was removed, cleaned of adherent fat and connective tissue and then cut into 3-mm ring segments. The endothelium was removed from the rings by gently sliding a rolled-up piece of filter paper into the vessel lumen. The rings were then mounted in a water-jacketed tissue bath, maintained at 37° C., between moveable and fixed ends of a stainless steel wire with the moveable end attached to an FT03 Grass transducer coupled to a Model 7D Grass Polygraph for recording isometric force responses. The bath was filled with 20 ml of oxygenated (95% oxygen/5% carbon dioxide) Krebs solution of the following composition (mM): 130 NaCl, […], 15 KCl, 1.2 NaH2PO4, 1.2 MgSO4, 2.5 CaCl2, and 11.4 glucose. The preparations were equilibrated for one hour before approximately one gram of passive tension was placed on the rings. Angiotensin II concentration-response curves were then recorded (3×10^−10 to 1×10^−5 M). Each concentration of AII was allowed to elicit its maximal contraction, and then AII was washed out repeatedly for 30 minutes before rechallenging with a higher concentration of AII. Aorta rings were exposed to the test antagonist at […] for 5 minutes before challenging with AII. Adjacent segments of the same aorta ring were used for all concentration-response curves in the presence or absence of the test antagonist. The effectiveness of the test compound was expressed in terms of pA2 values and were calculated according to H. O. Schild [Br. J. Pharmacol, Chemother., 2,189-206 (1947)]. The pA2 value is the concentration of the antagonist which increases the EC50 value for AII by a factor of two. Each test antagonist was evaluated in aorta rings from two rabbits.

[1] = molecular target: angiotensin II AT1 receptor; assay: Assay A: Angiotensin II binding activity (125I-AII displacement, rat uterine membrane preparation)
[2] = Rattus norvegicus, dose 30 mg/kg
[3] = in vitro vascular smooth muscle response, read-out: Assay B pA2 (converted)
[4] = Rattus norvegicus, dose 3 mg/kg
[5] = in vitro vascular smooth muscle response
[6] = Rattus norvegicus, dose 10 mg/kg

Row | Structure (SMILES) | Kb (rabbit aortic rings; [3]) | inhibition at 3 mg/kg (pressor response to AII; [4]) | IC50 [1] | Assay C Duration (pressor response to AII; dose 3 mg/kg) | also measured
1 | CCCCc1nc(Cl)nn1Cc1ccc(-c2ccccc2-c2nnn[nH]2)cc1 [compound 7] | 9.77 nM |  |  |  | inhibition at 30 mg/kg (pressor response to AII; [2]): 90%
2 | CCCCc1cn(-c2c(CC)cccc2CC)c(=O)n1Cc1ccc(-c2ccccc2-c2nnn[nH]2)cc1 [Compound 276] |  | < 20% | 33 nM |  | Assay B pA2 (rabbit aortic rings; [5]): 8.71 and 8.64
3 | CCCCc1nn(CCCc2ccccc2)c(=O)n1Cc1ccc(-c2ccccc2-c2nn[nH]n2)cc1 [Compound 81] | 10 nM |  | 18 nM |  | Assay C Inhibition (pressor response to AII): 40%
4 | CCCCc1nn(CC(=O)OC(C)(C)C)c(=O)n1Cc1ccc(-c2ccccc2-c2nn[nH]n2)cc1 [Compound 84] | 79.4 nM |  | 16 nM |  | Assay C Inhibition (pressor response to AII): 20%
5 | CCCCn1nc(-c2ccccc2Cl)nc1Cc1ccc(-c2ccccc2-c2nnn[nH]2)nc1 [Compound 158] | 5.89 nM | 30% | 54 nM | >180 min | 
6 | CCCn1nc(C(F)(F)CCC)nc1Cc1ccc(-c2ccccc2-c2nnn[nH]2)nc1 [Compound 169] | 16.6 nM | 15% | 150 nM | 180 min | 
7 | CCCCn1nc(CCC)nc1Cc1ccc(-c2ccccc2-c2nnn[nH]2)nc1 [Compound 152] | 34.7 nM | 10% | 150 nM | 140 min | 
8 | CCCCc1nc(Cl)c(CO)n1Cc1ccc(-n2cccc2C(=O)O)cc1 [Compound 148] | 1580 nM | 92% |  | 20 to 30 min | 
9 | CCCCc1nc(CCCC)n(Cc2ccc(-n3c(Cl)cc(Cl)c3-c3nnn[nH]3)cc2)n1 [Compound 143] | 20 nM |  | 0.052 nM |  | Assay C Inhibition (pressor response to AII): 85%
10 | CCCCc1cn(-c2c(C)cc(C)cc2C)c(=O)n1Cc1ccc(-c2ccccc2-c2nnn[nH]2)cc1 [Compound 278] |  | 50% | 30 nM | >180 min | Assay B pA2 (rabbit aortic rings; [5]): 8.49 and 8.51
11 | CCCCc1nc2c(OC(=O)Cc3ccccc3)nnc(O)c2n1Cc1ccc(-c2ccccc2-c2nnn[nH]2)cc1 [Compound 124] |  | 45% |  | >180 min | Kb (rabbit aortic rings; read-out: Assay B pA2, in vitro vascular smooth muscle response (converted)): 0.38 nM
12 | CCCCc1nc(Cl)nn1Cc1ccc(-c2ccccc2C(=O)O)cc1 [compound 6] | 282 nM |  |  |  | inhibition at 100 mg/kg (pressor response to AII; Rattus norvegicus, dose 100 mg/kg): 90%
13 | CCCCc1nc2c(O)nnc(O)c2n1Cc1ccc(-c2ccccc2-c2nnn[nH]2)cc1 [Compound 111] | 1 nM |  |  |  | inhibition at 30 mg/kg (pressor response to AII; [2]): 87%
14 | CCCCc1nc2c(OC(=O)C(C)C)nnc(O)c2n1Cc1ccc(-c2ccccc2-c2nnn[nH]2)cc1 [Compound 119] | 0.617 nM | 20% |  | 60 min | 
15 | CCCCc1nc(C(=O)N(C)C(C)(C)C)nn1Cc1ccc(-c2ccccc2-c2nnn[nH]2)nc1 [Compound 255] | 24.5 nM | 20% | 12 nM | >180 min | 
16 | CCCCc1nc2c(CCC)nnc(O)c2n1Cc1ccc(-c2ccccc2-c2nnn[nH]2)cc1 [Compound 113] | 3.98 nM |  |  |  | inhibition at 10 mg/kg (pressor response to AII; [6]): 60%; Assay C Duration (pressor response to AII; dose 10 mg/kg): 180 min
17 | CCCCc1cn(-c2c(C)cccc2Cl)c(=O)n1Cc1ccc(-c2ccccc2-c2nnn[nH]2)cc1 [Compound 274] |  | 35% | 13 nM | >180 min | Assay B pA2 (rabbit aortic rings; [5]): 9.06 and 8.85
18 | CCCCc1nc(Cl)c(Cl)n1Cc1ccc(-n2cccc2C(=O)O)cc1 [Compound 147] | 2510 nM | 74% | 5.8 nM | 5 to 10 min | 

Row | Structure (SMILES) | Kb (rabbit aortic rings; [3]) | inhibition at 3 mg/kg (pressor response to AII; [4]) | IC50 [1] | Assay C Duration (pressor response to AII; dose 3 mg/kg) | also measured
19 | CCCCc1nc2c(OC(=O)C3CCCCC3)nnc(O)c2n1Cc1ccc(-c2ccccc2-c2nnn[nH]2)cc1 [Compound 120] | 0.891 nM |  |  |  | inhibition at 10 mg/kg (pressor response to AII; [6]): 80%; Assay C Duration (pressor response to AII; dose 10 mg/kg): 240 min
20 | CCCCc1nn(CC(O)c2ccccc2)c(=O)n1Cc1ccc(-c2ccccc2-c2nn[nH]n2)cc1 (stereo not shown) [Compound 83] | 5.01 nM |  | 3.6 nM |  | Assay C Inhibition (pressor response to AII): 15%
21 | CCCCn1nc(C(OCC)OCC)nc1Cc1ccc(-c2ccccc2-c2nnn[nH]2)nc1 [Compound 176] | 20.4 nM | 10% | 9.8 nM | 150 min | 
22 | CCCCc1nc(CCc2ccccc2)nn1Cc1ccc(-c2ccccc2-c2nnn[nH]2)cc1 [Compound 26] | 0.148 nM |  | 3.2 nM |  | inhibition at 10 mg/kg (pressor response to AII; [6]): 50%; Assay C Duration (pressor response to AII; dose 10 mg/kg): >180 min
23 | CCCCc1cn(-c2c(OC)cccc2OC)c(=O)n1Cc1ccc(-c2ccccc2-c2nnn[nH]2)cc1 [Compound 273] |  | 25% | 9.8 nM | >180 min | Assay B pA2 (rabbit aortic rings; [5]): 8.53 and 8.61
24 | CCCCc1nc2cnnc(O)c2n1Cc1ccc(-c2ccccc2-c2nnn[nH]2)cc1 [Compound 115] | 6.31 nM | 40% |  | >240 min | 
25 | CCCCc1nc(C(=O)CCC)nn1Cc1ccc(-c2ccccc2-c2nnn[nH]2)cc1 [Compound 30] | 18.6 nM |  | 22 nM |  | inhibition at 30 mg/kg (pressor response to AII; [2]): 50%; Assay C Duration (pressor response to AII; dose 30 mg/kg): >180 min
26 | CCCCc1nc(Cc2ccc(-c3ccccc3-c3nnn[nH]3)nc2)n(CCCC)n1 [Compound 150] | 9.33 nM | 25% | 14 nM | >180 min | 
27 | CCCCc1nc(CCCC)n(Cc2ccc(-c3ccccc3-c3nnn[nH]3)cn2)n1 [Compound 239] | 13.2 nM | 20% |  |  | 
28 | CCCCc1nc(C(F)(F)CCC)n(Cc2ccc(-c3ccccc3-c3nnn[nH]3)nc2)n1 [Compound 248] | 20.9 nM | 10% | 20 nM |  | 
29 | CCCCc1nc2c(O)nnc(O)c2n1Cc1ccc(-c2ccccc2C(=O)O)cc1 [Compound 109] | 50.1 nM |  | 250 nM |  | inhibition at 30 mg/kg (pressor response to AII; [2]): 50%; Assay C Duration (pressor response to AII; dose 30 mg/kg): 30 min
30 | CCCCc1nc(C(F)(F)CCC)nn1Cc1ccc(-c2ccccc2-c2nnn[nH]2)nc1 [Compound 247] | 5.5 nM | 20% | 9.4 nM | 180 min | 
31 | CCCCc1nn(CCCC)c(=O)n1Cc1ccc(-c2ccccc2C(=O)O)cc1 [Compound 78] | 100 nM |  | 101 nM |  | Assay C Inhibition (pressor response to AII): 93%
32 | CCCCc1cn(CCc2cccs2)c(=O)n1Cc1ccc(-c2ccccc2-c2nnn[nH]2)cc1 [Compound 134] | 0.501 nM | 35% | 22 nM | 180 min | 
33 | CCCCc1nc(CCC)nn1Cc1ccc(-c2ccccc2-c2nnn[nH]2)cc1 [Compound 14] | 1.45 nM |  | 7.2 nM |  | 
34 | CCCCc1nc(C(=O)NC)n(Cc2ccc(-c3ccccc3-c3nnn[nH]3)nc2)n1 [Compound 258] | 145 nM |  | 350 nM |  | 
35 | CCCCc1nc(CCC(=O)O)nn1Cc1ccc(-c2ccccc2-c2nnn[nH]2)cc1 [Compound 63] | 17 nM |  | 61 nM |  | 
36 | CCCCc1nc(Cc2ccc(-c3ccccc3-c3nnn[nH]3)nc2)n(CC(CC)CC)n1 [Compound 157] | 603 nM |  | 530 nM |  | 
